# According to publication PMC11868595, “Safety, pharmacokinetics and efficacy of HA121-28 in patients with advanced solid tumors and RET fusion-positive non-small-cell lung cancer: a multicenter, open-label, single-arm phase 1/2 trial” (Signal Transduction and Targeted Therapy, 2025):
# Marks after values point to notes of the source that are not given here.
# How the values were obtained:
# [1] = tested on: A375 cells; assay: Tumor cell proliferation in vitro; assay type: cell-based, human
# [2] = tested on: A431 cells; assay: Tumor cell proliferation in vitro; assay type: cell-based, human; settings: A431; read-out: IC50, proliferation
# [3] = tested on: EGFR and ERK activation; assay: EGF-stimulated activation of EGFR and ERK in A431 cells; assay type: cell-based, human; settings: 10 ng/mL EGF, concentration-dependent
# [4] = tested on: VEGFR and ERK activation; assay: VEGF165-stimulated activation of VEGFR and ERK in HUVEC cells; assay type: cell-based, human; settings: 50 ng/mL VEGF165, concentration-dependent
# [5] = tested on: RET and ERK activation; assay: Activation of RET and ERK in TT cells; assay type: cell-based, human; settings: concentration-dependent
# [6] = tested on: arterial ring angiogenesis; assay: Rat arterial ring angiogenesis
# [7] = tested on: human gastric cancer SGC-7901 tumors; assay: SGC-7901 tumors in nude mice; assay type: in vivo
# Text: (§1) was higher than that of vandetanib .
# as §1
# Table S16. Efficacy of HA121-28 on human gastric cancer SGC-7901 tumors
# [8] = tested on: human melanoma A375 tumors; assay: A375 tumors in nude mice; assay type: in vivo
# [9] = Cynomolgus monkey plasma kinetics; assay type: in vivo
# [10] = Plasma protein binding; assay type: in vitro ADME; settings: dogs
# [11] = Plasma protein binding; assay type: in vitro ADME; settings: humans
# [12] = 28-day repeated dose toxicity; assay type: in vivo, SD rats
# [13] = Ames test; settings: in vitro Ames test
# [14] = tested on: CHL; assay: CHL test; assay type: cell-based
# [15] = target: FGFR4 (Homo sapiens, UniProt P22455); assay: Tyrosine kinase inhibition; assay type: biochemical
# FGFR4, sequence (P22455 22-802): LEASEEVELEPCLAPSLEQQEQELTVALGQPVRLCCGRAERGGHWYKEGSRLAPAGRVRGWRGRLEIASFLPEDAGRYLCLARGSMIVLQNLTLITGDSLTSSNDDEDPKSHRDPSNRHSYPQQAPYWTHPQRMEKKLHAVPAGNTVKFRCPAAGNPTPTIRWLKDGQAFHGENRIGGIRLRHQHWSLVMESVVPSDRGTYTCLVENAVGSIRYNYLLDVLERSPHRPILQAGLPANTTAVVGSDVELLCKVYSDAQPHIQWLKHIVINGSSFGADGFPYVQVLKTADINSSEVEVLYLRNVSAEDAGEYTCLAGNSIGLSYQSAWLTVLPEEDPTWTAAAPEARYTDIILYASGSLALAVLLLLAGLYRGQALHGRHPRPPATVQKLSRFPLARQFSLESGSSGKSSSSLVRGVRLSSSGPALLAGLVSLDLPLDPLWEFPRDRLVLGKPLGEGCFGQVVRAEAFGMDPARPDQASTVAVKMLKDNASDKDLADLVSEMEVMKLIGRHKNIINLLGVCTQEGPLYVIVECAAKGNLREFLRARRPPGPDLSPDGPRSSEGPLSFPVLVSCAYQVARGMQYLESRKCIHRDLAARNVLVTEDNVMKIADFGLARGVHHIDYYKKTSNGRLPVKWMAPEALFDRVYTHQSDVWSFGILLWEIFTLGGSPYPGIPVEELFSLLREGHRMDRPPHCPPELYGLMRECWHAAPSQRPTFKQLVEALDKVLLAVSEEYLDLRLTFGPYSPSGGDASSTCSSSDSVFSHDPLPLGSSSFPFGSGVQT
# [16] = target: PDGFRα (Homo sapiens, UniProt P16234); assay: Tyrosine kinase inhibition; assay type: biochemical
# PDGFRα, sequence (P16234 24-1089): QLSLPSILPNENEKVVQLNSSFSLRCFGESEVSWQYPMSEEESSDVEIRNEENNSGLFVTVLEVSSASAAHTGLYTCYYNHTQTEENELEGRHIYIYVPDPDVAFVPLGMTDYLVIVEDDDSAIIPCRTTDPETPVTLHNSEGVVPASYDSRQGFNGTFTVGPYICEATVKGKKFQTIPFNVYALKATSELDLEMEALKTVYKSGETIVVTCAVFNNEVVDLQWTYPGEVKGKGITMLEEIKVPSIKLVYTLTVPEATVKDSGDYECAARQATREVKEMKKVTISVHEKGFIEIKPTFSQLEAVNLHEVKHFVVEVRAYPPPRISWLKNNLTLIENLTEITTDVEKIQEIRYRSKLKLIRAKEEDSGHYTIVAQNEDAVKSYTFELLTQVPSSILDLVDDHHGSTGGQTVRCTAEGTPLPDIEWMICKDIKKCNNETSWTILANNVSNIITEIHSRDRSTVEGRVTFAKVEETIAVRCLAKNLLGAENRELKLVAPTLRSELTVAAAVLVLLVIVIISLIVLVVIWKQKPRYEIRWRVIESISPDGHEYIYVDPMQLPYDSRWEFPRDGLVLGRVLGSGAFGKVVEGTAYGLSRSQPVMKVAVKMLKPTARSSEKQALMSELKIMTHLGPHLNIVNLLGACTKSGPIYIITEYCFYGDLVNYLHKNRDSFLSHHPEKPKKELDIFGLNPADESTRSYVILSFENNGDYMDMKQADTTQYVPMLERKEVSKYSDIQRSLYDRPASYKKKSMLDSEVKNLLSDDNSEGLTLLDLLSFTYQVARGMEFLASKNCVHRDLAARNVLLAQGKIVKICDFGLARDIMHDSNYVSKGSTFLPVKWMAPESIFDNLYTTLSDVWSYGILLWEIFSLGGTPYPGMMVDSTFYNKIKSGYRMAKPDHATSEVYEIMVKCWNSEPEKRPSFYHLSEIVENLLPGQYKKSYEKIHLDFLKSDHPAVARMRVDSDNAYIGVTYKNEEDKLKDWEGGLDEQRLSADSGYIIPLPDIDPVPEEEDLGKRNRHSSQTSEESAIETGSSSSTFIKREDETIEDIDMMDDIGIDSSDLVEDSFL
# [17] = target: AXL (Homo sapiens, UniProt P30530); assay: Tyrosine kinase inhibition; assay type: biochemical
# AXL, sequence (P30530 26-894): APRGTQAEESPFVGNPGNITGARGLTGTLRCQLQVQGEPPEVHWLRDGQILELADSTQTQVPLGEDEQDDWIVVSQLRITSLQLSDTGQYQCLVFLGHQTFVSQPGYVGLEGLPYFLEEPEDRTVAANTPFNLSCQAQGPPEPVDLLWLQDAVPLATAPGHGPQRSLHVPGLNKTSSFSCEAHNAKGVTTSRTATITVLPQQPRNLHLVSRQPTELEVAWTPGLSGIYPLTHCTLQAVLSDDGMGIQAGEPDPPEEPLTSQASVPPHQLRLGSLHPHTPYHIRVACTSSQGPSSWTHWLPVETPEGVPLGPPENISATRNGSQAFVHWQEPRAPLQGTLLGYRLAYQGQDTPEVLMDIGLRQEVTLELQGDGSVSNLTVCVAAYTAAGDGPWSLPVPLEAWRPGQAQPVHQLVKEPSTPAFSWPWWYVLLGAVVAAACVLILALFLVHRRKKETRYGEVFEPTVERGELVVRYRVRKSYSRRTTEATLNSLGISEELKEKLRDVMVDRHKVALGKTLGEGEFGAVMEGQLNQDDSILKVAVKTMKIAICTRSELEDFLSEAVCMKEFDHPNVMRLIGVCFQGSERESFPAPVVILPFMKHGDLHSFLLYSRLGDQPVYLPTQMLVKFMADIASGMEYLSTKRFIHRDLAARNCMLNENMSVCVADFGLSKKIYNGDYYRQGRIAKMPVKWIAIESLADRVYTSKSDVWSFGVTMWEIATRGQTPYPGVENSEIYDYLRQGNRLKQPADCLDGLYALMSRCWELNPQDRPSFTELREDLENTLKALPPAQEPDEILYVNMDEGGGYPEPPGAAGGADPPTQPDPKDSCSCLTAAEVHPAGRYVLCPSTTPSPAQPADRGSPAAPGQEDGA
# [18] = target: BLK (Homo sapiens, UniProt P51451); assay: Tyrosine kinase inhibition; assay type: biochemical
# BLK, sequence (P51451 whole entry): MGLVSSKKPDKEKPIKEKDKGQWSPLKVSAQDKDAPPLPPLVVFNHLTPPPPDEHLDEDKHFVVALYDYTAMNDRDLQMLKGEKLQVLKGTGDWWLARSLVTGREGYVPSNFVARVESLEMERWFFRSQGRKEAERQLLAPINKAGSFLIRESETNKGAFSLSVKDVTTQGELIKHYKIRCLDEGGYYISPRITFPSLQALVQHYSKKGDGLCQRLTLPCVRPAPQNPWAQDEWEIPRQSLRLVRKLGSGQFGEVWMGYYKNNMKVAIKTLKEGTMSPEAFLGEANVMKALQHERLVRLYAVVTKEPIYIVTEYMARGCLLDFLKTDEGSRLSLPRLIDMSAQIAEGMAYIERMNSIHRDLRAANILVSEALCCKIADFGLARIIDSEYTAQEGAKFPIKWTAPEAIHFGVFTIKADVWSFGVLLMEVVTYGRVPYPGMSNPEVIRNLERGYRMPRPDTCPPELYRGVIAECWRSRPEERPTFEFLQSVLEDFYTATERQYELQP
# [19] = tested on: HUVEC cells; settings: 50 ng/mL VEGF165
smiles,measurement,setting,value
"COc1cc2c(Nc3ccc(Br)cc3F)ncnc2cc1OCCCCN(C)C.Cl.Cl [HA121-28, N-(4-bromo-2-fluorophenyl)-7-(4-(dimethylamino)butoxy)-6-methoxy quinazolin-4-amine dihydrochloride]",IC50,[1],716 ± 154 nM
same,IC50,[2],775 ± 76.7 nM
same,activation of EGFR and downstream ERK,[3],significantly inhibited
same,activation of VEGFR and downstream ERK,[4],significantly inhibited
same,activation of RET and downstream ERK,[5],significantly inhibited
same,rat arterial ring angiogenesis,[6],able to inhibit
same,RTV ±SD,[7]; 25 mg/kg,7.2±1.0
same,T/C,[7]; 25 mg/kg,45.3%
same,Terminal Tumor Volume,[7]; 25 mg/kg,1424.3±410.0** mm^3
same,RTV ±SD,[7]; 50 mg/kg,2.0±1.1
same,T/C,[7]; 50 mg/kg,12.8%
same,Terminal Tumor Volume,[7]; 50 mg/kg,478.5±307.8** mm^3
same,RTV ±SD,[7]; 75 mg/kg,1.2±0.3
same,T/C,[7]; 75 mg/kg,7.6%
same,Terminal Tumor Volume,[7]; 75 mg/kg,288.9±162.6** mm^3
same,RTV ±SD,[8]; 12.5 mg/kg,11.2±4.7
same,T/C,[8]; 12.5 mg/kg,54.6%
same,Terminal Tumor Volume,[8]; 12.5 mg/kg,1860.7±1044.5 mm^3
same,RTV ±SD,[8]; 25 mg/kg,8.7±5.9
same,T/C,[8]; 25 mg/kg,42.6%
same,Terminal Tumor Volume,[8]; 25 mg/kg,1329.3±1001.3* mm^3
same,RTV ±SD,[8]; 50 mg/kg,5.7±3.1
same,T/C,[8]; 50 mg/kg,27.7%
same,Terminal Tumor Volume,[8]; 50 mg/kg,879.7±405.8** mm^3
same,AUC0-72h,[9]; gavage (5 mg/kg),1680 ± 766 ng·h/mL
same,AUC0-∞,[9]; gavage (5 mg/kg),1920 ± 992 ng·h/mL
same,CL,[9]; gavage (5 mg/kg),50.8 ± 20.3 mL/min/kg
same,Cmax,[9]; gavage (5 mg/kg),75.9 ± 27.8 ng/mL
same,MRT0-72h,[9]; gavage (5 mg/kg),20.9 ± 2.67 h
same,MRT0-∞,[9]; gavage (5 mg/kg),30.5 ± 8.00 h
same,Tmax,[9]; gavage (5 mg/kg),6.75 ± 1.50 h
same,Vd,[9]; gavage (5 mg/kg),100 ± 24.1 L/kg
same,t1/2,[9]; gavage (5 mg/kg),24.4 ± 5.68 h
same,AUC0-72h,[9]; intravenous (5 mg/kg),2610 ± 1340 ng·h/mL
same,AUC0-∞,[9]; intravenous (5 mg/kg),3000 ± 1880 ng·h/mL
same,C6min,[9]; intravenous (5 mg/kg),314 ± 61.4 ng/mL
same,CL,[9]; intravenous (5 mg/kg),34.2 ± 13.6 mL/min/kg
same,MRT0-72h,[9]; intravenous (5 mg/kg),18.8 ± 3.77 h
same,MRT0-∞,[9]; intravenous (5 mg/kg),27.5 ± 11.4 h
same,Vd,[9]; intravenous (5 mg/kg),58.7 ± 15.7 L/kg
same,t1/2,[9]; intravenous (5 mg/kg),22.3 ± 8.39 h
same,F (oral bioavailability),[9]; monkey,64.4%
same,plasma protein binding rate,[10],91.9±0.857%
same,plasma protein binding rate,[11],90.1±1.05%
same,no observed adverse effect level (NOAEL),"[12]; 28-day, SD rats",15 mg/kg
same,highest non-severely toxic dose (HNSTD),"[12]; oral gavage, four consecutive weeks",15 mg/kg
same,genetic toxicity,[13],negative
same,genetic toxicity,[14],negative
same,IC50,[15],953 nM
same,IC50,[16],58.7 nM
same,IC50,[17],589 nM
same,IC50,[18],201 nM
same,IC50,[19],65.4 nM
